From publication PMC11071266, “The putative proton-coupled organic cation antiporter is involved in uptake of triptans into human brain capillary endothelial cells” (Fluids and Barriers of the CNS, 2024)

Legend:
[1] = Physicochemical properties extracted from databases
Description: Triptans are a relatively homogeneous group of drug compounds with similar physicochemical properties, including molecular weights < 400 g/mol and a low to moderate lipophilicity (cLogD values ranging from − 2.1–0.18). […] As a consequence, it is unlikely that triptans cross the brain microvascular endothelium through passive diffusion to a clinically relevant extent. Table 1 summarizes structures and physicochemical properties of the triptans, as well as oxycodone and pyrilamine, which are two prototypical H^+/OC antiporter substrates included in this study.

H^+/OC antiporter = assay: Concentration-dependent cellular uptake into hCMEC/D3 cells (Michaelis-Menten kinetics); type: cell-based, human
Protocol: The immortalized human cerebral microvascular endothelial cell line (hCMEC/D3) was maintained in T75-flasks coated with collagen type I from calf skin (C9791, 18.7 μg/mL) and cultured in EBM®-2 medium (Lonza, Basel, Schweiz) supplemented with 5% (v/v) fetal bovine serum (FBS, 10270, Life Technologies, CA, USA or SH3008803, ThermoFisher Scientific, MA, USA), 100 U/mL penicillin and 100 μg/ml streptomycin, 1 ng/mL human basic fibroblast growth factor (bFGF), 1.4 μM hydrocortisone, 1% (v/v) chemically defined lipid concentrate (ThermoFisher Scientific, MA, USA), 10 mM N-2-hydroxyethylpiperazine-N-2-ethane sulfonic acid (HEPES) and 5 μg/mL ascorbic acid (5% CO2, 37 °C). […] For experiments, cells were seeded into 24-well plates (6.7·10^4 cells/cm^2) and cultured for four continuous days. The cells were used for experiments between passage 3–31.
The cells were equilibrated in hHBSS with or without inhibitor for 15 min (37 °C, 90 rpm). The compound of interest was spiked into the hHBSS followed by incubation for a designated time. The timeframe of the initial uptake rate was validated into hCMEC/D3 cells (Fig. 1 and Additional file 1). The experiment was terminated by washing three times with ice-cold HBSS supplemented with 0.0375% (v/v) sodium bicarbonate.
To assess the concentration-dependent uptake, the uptake flux was fitted to the Michaelis–Menten equation, Eq. 1.1 Jss=Jmax[S]/Km+[S] where Jss represents flux under steady state, Jmax is the maximal flux, [S] is the substrate concentration, and Km is the Michaelis–Menten constant.
The hCMEC/D3 cells were used for concentration-dependent uptake studies between passage 21–23 (pyrilamine), 11–13 (oxycodone), 12–14 (almotriptan), 16–18 (eletriptan), and 12–14 (sumatriptan).
The cells were permeabilized using 50% (v/v) acetonitrile (HPLC LC–MS grade, VWR International S.A.S, Soeborg, Denmark) in ultrapure water (ELGA, Buckinghamshire, England) for 10 min at room temperature. Thereafter, the cells were scraped off the bottom of the wells and transferred to HPLC vials. Samples from bidirectional transport experiments were transferred directly into HPLC vials. All samples were stored at – 18 °C for later analysis. Calibration curves with standards in the range of 1 or 5–1000 ng/mL were dissolved in 50% (v/v) acetonitrile in ultrapure water (ELGA, Buckinghamshire, England), or in hHBSS(-) for analysis of bidirectional transport samples.
Liquid chromatography tandem mass spectrometry (LC–MS/MS) were performed using electrospray ionization in positive mode on a micromass Quattro micro™ API tandem quadrupole mass spectrometer (Waters, MA, USA) or an Ultivo triple quadrupole mass spectrometer (Agilent Technologies, CA, USA) coupled to Agilent HPLC system 1100 Series or 1260 Series (Agilent Technologies, CA, USA California), respectively. Applied columns were an InfinityLab Poroshell 120 EC-C18 (3.0 × 50 mm; 2.7 micron, Agilent Technologies, CA, USA) or a Kinetex 2.6 μm XB-C18 (100 Å, 100 × 4.6 mm, Phenomenex Inc., CA, USA). An overview of applied HPLC and MS/MS parameters can be found in Additional file 2 and Additional file 3, respectively. The data acquisition software was MassLynx (V4.1, Waters, MA, USA).
The protein content of hCMEC/D3 cells was determined for normalization purposes. Cells were washed with ice-cold phosphate buffered saline following cell lysis in cell extraction buffer (FNN0011, Thermo Fisher Scientific, MA, USA) supplemented with 1 × cOmplete™ Protease Inhibitor Cocktail (04693116001, Roche, Basel, Schweiz), 1 mM phenylmethylsulfonyl fluoride, and […] for 30 min on ice.

[2] = design: method as in PMID 32173558; settings: cited from earlier work
in vitro = settings: C57, mouse, plasma
Description: C57 mice were used to prepare blank plasma and brain matrices throughout all binding studies.

[3] = pH 7.4; cited from earlier work
P-gp = P-gp (Homo sapiens, UniProt P08183); design: expressed in transfected cells; host or cells: IPEC-J2 (porcine ileum epithelial cell line); method as in PMID 12438524; settings: MDR1-MDCKII cell line; cited from earlier work
P-gp, sequence (P08183 whole entry): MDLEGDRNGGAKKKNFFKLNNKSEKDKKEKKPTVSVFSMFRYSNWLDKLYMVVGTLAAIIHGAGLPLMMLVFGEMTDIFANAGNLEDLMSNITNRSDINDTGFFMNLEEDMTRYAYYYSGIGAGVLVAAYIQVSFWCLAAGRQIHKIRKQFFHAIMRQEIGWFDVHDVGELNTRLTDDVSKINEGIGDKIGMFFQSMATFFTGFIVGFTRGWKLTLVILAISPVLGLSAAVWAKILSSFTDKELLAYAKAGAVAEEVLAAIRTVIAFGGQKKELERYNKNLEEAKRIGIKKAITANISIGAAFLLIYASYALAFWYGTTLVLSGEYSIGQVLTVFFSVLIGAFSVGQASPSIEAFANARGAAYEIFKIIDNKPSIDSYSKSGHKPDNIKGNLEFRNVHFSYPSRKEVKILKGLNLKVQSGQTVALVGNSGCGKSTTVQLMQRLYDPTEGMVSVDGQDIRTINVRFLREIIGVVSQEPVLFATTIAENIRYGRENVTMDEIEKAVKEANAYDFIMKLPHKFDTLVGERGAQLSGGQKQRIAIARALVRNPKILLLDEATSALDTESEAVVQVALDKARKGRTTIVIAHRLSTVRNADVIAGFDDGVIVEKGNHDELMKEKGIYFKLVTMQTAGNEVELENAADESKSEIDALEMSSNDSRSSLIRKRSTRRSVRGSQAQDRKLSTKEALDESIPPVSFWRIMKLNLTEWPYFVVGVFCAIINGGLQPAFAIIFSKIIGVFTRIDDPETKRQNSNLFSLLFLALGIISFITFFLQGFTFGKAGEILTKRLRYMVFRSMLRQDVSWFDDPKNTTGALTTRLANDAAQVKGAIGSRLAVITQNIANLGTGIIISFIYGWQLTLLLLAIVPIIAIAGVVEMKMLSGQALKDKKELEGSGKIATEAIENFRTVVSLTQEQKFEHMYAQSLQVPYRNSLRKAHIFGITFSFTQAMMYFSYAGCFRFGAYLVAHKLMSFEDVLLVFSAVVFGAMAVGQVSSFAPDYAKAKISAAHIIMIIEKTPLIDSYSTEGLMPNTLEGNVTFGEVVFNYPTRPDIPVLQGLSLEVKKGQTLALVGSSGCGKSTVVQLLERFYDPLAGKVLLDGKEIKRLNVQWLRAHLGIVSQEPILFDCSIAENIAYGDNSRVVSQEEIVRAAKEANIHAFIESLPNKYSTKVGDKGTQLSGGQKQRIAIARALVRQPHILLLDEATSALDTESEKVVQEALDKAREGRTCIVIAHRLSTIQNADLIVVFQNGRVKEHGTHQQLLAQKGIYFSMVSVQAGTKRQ

Overall charge pH 7.4 [1]: Positive
fraction unbound at 1 µM (in vitro; fu,brain): 0.083
fraction unbound at 1 µM (in vitro; fu,plasma): 0.4
SMILES: CN1CCC[C@@H]1Cc1c[nH]c2ccc(CCS(=O)(=O)c3ccccc3)cc12 [Eletriptan]
Concentration-dependent uptake (saturability) (H^+/OC antiporter; hCMEC/D3 cells, tested concentration range): reaching saturation within a 500 µM concentration
Association with H^+/OC antiporter (H^+/OC antiporter; summary of uptake and inhibition studies in hCMEC/D3 cells): Substrate potent inhibitor
Jmax (H^+/OC antiporter; uptake into hCMEC/D3 cells): 2.2 ± 0.7 nmol·min^−1·mg protein^−1
Km (H^+/OC antiporter; uptake into hCMEC/D3 cells, read-out: Apparent Km): 89 ± 38 µM
Clinically relevant human peak plasma concentrations [2]: 94 to 200 ng/mL
Clinically relevant plasma concentrations ([2]; human): 246 to 523 nM
cLogD pH 7.4 [3]: 1.1
ER (P-gp): 44.7
